Measurements: US8772332B2, “Arylpropionyl-alpha-pyrone antibacterial agents” (priority 2010, dated 2014)
≈ marks a conversion by molar mass, not a printed value.

Key:
[1] = biological target: E. coli RNA polymerase σ70 holoenzyme (Escherichia coli, UniProt P0A8T7+P0A8V2); test: Fluorescence-detected RNA polymerase assay, E. coli RNA polymerase; type: biochemical; conditions: RiboGreen fluorescence, read-out: IC50 E. coli RNAP
Procedure: Fluorescence-detected RNA polymerase assays with E. coli RNA polymerase were performed by a modification of the procedure of Kuhlman et al., 2004 [Kuhlman, P., Duff, H. & Galant, A. (2004) A fluorescence-based assay for multisubunit DNA-dependent RNA polymerases. Anal. Biochem. 324, 183-190]. Reaction mixtures contained (20 μl): 0-100 nM test compound, 75 nM E. coli RNA polymerase σ^70 holoenzyme, 20 nM 384 bp DNA fragment containing the bacteriophage T4 N25 promoter, 100 μM ATP, 100 μM GTP, 100 μM UTP, 100 μM CTP, 50 mM Tris-HCl, pH 8.0, 100 mM KCl, 10 mM MgCl2, 1 mM DTT, 10 μg/ml bovine serum albumin, and 5.5% glycerol. Reaction components other than DNA and NTPs were pre-incubated for 10 min at 37° C. Reactions were carried out by addition of DNA and incubation for 5 min at 37° C., followed by addition of NTPs and incubation for 60 min at 37° C. DNA was removed by addition of 1 μl 5 mM CaCl2 and 2 U DNaseI (Ambion, Inc.), followed by incubation for 90 min at 37° C. RNA was quantified by addition of 100 μl RiboGreen RNA Quantitation Reagent (Invitrogen, Inc.; 1:500 dilution in Tris-HCl, pH 8.0, 1 mM EDTA), followed by incubation for 10 min at 25° C., followed by measurement of fluorescence intensity [excitation wavelength=485 nm and emission wavelength=535 nm; QuantaMaster QM1 spectrofluorometer (PTI, Inc.)]. […]

[2] = system: Enterococcus faecium ATCC19434; test: MIC, spiral gradient endpoint assay; type: cell-based; conditions: Mueller-Hinton II agar, 16 h at 37° C., read-out: MIC E. faecium 19434
Excerpt: (§1) Minimum inhibitory concentrations (MICs) for Staphylococcus aureus ATCC 12600, Staphylococcus aureus ATCC 13709 MSSA, Staphylococcus aureus BAA-1707 MRSA (MW2), Staphylococcus aureus BAA-1717 MRSA (USA300), Enterococcus faecalis ATCC 19433, Enterococcus faecium ATCC19434, and Escherichia coli D21f2tolC were quantified using spiral gradient endpoint assays, essentially as described [Wallace, A. and Corkill, J. (1989) Application of the spiral plating method to study antimicrobial action. J. Microbiol. Meths. 10, 303-310; Paton, J., Holt, A., and Bywater, M. (1990) Measurement of MICs of antibacterial agents by spiral gradient endpoint compared with conventional dilution methods. Int. J. Exp. Gin. Chemother. 3, 31-38; Schalkowsky S. (1994) Measures of susceptibility from a spiral gradient of drug concentrations. Adv. Exp. Med. Biol. 349, 107-120]. Assays employed exponential-gradient plates containing 150 mm×4 mm Mueller-Hinton II cation-adjusted agar and 0.4-100 μg/ml of test compound. Plates were prepared using an Autoplate 4000 spiral plater (Spiral Biotech, Inc.). Saturated overnight cultures were swabbed radially onto plates, and plates were incubated for 16 h at 37° C. For each culture, the streak length was measured using a clear plastic template (Spiral Biotech, Inc.), the test-compound concentration at the streak endpoint was calculated using the program SGE (Spiral Biotech, Inc.), and the MIC was defined as the calculated test-compound concentration at the streak endpoint.

[3] = system: Staphylococcus aureus ATCC 12600; test: MIC, spiral gradient endpoint assay; type: cell-based; conditions: ATCC12600, Mueller-Hinton II agar, 16 h at 37° C., read-out: MIC S. aureus 12600
Excerpt: as §1

[4] = system: Escherichia coli D21f2tolC; test: MIC, spiral gradient endpoint assay; type: cell-based; conditions: 16 h, read-out: MIC E. coli D21f2tolC
Excerpt: as §1

[5] = system: Staphylococcus aureus BAA-1707 MRSA (MW2); test: MIC, spiral gradient endpoint assay; type: cell-based; conditions: Mueller-Hinton II agar, 16 h at 37° C., read-out: MIC S. aureus MRSA 1707
Excerpt: as §1

[6] = system: Staphylococcus aureus BAA-1717 MRSA (USA300); test: MIC, spiral gradient endpoint assay; type: cell-based; conditions: Mueller-Hinton II agar, 16 h at 37° C., read-out: MIC S. aureus MRSA 1717
Excerpt: as §1

[7] = system: Enterococcus faecalis ATCC 19433; test: MIC, spiral gradient endpoint assay; type: cell-based; conditions: ATCC19433, Mueller-Hinton II agar, 16 h at 37° C., read-out: MIC E. faecalis 19433
Excerpt: as §1

[8] = system: Staphylococcus aureus ATCC 13709 MSSA; test: MIC, spiral gradient endpoint assay; type: cell-based; conditions: Mueller-Hinton II agar, 16 h at 37° C., read-out: MIC S. aureus 13709
Excerpt: as §1

[9] = system: Mycobacterium tuberculosis H37Rv; test: MIC, microplate Alamar Blue assay; type: cell-based
Excerpt: MICs for Mycobacterium tuberculosis were quantified using microplate Alamar Blue assays as described [Collins, L. & Franzblau, S. (1997) Microplate Alamar Blue assay versus BACTEC 460 system for high-throughput screening of compounds against Mycobacterium tuberculosis and Mycobacterium avium. Antimicrob. Agents Chemother. 41, 1004-1009].

Chain of E. coli RNA polymerase σ70 holoenzyme (P0A8V2 whole entry, the tested form may be a part): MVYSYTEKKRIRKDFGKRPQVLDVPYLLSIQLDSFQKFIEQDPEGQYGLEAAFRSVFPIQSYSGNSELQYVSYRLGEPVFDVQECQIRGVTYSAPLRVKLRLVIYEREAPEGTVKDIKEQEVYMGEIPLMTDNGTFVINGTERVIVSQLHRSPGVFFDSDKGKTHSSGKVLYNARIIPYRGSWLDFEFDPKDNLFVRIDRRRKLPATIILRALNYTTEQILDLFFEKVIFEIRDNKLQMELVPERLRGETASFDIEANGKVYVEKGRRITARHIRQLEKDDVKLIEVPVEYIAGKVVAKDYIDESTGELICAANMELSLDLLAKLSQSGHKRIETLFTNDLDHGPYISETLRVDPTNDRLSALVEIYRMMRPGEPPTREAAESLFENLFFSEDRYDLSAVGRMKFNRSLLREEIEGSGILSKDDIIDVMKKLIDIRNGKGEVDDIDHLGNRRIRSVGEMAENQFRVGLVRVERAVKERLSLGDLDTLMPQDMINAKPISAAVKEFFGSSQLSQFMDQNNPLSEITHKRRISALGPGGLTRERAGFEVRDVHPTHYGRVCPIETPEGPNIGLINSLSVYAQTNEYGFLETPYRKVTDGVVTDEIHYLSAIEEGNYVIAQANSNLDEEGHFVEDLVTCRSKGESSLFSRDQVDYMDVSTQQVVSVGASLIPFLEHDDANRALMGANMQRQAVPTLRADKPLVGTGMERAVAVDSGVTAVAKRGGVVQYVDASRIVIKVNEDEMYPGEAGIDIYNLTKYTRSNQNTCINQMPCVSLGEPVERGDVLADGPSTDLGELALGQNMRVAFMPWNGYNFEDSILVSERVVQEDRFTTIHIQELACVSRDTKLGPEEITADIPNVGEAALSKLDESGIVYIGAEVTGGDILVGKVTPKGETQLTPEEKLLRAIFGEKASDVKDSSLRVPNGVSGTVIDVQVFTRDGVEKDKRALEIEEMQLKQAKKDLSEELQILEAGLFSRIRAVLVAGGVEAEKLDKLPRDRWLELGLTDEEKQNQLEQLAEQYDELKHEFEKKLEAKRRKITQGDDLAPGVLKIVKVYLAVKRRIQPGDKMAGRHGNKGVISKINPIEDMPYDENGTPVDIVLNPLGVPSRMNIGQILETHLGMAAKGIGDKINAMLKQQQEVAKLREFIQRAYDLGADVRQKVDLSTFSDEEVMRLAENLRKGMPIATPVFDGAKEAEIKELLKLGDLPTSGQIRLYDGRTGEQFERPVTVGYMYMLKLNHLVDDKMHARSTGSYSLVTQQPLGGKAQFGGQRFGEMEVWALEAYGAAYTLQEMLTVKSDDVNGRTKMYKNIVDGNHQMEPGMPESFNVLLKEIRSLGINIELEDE
Chain of E. coli RNA polymerase σ70 holoenzyme (P0A8T7 whole entry, the tested form may be a part): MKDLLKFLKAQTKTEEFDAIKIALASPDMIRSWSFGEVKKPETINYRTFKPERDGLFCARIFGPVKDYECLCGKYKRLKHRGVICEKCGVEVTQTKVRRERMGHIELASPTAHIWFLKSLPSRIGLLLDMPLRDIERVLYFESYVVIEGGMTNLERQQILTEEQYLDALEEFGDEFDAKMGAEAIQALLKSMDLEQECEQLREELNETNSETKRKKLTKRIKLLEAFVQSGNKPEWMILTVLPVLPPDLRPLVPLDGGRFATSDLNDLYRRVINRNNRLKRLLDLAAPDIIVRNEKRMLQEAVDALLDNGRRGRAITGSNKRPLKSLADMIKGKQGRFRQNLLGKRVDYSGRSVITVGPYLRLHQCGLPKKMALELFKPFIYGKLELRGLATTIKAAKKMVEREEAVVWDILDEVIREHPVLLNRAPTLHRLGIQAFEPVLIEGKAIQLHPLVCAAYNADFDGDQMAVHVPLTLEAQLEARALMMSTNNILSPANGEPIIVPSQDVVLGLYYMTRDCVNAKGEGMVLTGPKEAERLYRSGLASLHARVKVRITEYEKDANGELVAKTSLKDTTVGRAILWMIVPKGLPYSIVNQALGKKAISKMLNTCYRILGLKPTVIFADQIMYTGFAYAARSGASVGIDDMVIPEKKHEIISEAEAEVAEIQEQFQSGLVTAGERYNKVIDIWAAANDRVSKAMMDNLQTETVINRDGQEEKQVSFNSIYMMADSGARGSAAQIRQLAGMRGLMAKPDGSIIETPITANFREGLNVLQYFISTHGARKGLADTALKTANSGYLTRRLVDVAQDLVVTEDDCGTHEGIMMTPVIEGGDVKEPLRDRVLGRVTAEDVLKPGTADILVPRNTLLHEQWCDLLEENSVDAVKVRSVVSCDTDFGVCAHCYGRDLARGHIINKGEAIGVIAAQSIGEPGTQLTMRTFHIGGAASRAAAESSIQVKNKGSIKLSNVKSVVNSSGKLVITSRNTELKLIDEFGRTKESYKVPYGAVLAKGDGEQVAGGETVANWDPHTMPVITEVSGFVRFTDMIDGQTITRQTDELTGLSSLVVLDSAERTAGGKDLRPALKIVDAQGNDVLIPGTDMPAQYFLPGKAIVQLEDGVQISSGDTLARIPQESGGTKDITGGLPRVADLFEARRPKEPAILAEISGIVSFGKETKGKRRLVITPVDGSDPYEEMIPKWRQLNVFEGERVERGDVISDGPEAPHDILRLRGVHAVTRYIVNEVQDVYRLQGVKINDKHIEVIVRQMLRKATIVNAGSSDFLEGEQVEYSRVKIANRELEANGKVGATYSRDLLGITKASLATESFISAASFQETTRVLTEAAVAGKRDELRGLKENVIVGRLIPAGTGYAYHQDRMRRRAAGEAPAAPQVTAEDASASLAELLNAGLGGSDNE
Chain of E. coli RNA polymerase σ70 holoenzyme (P0A7Z4 whole entry partner, the tested form may be a part): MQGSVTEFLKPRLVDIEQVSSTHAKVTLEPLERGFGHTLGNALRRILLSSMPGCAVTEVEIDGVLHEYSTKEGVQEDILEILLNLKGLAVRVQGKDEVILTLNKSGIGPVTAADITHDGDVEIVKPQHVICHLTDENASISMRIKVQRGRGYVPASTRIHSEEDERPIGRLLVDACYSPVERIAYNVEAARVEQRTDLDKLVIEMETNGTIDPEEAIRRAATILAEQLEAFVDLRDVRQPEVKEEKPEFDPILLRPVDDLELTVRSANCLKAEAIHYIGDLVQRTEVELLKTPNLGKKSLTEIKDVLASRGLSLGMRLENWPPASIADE
Chain of E. coli RNA polymerase σ70 holoenzyme (P0A800 whole entry partner, the tested form may be a part): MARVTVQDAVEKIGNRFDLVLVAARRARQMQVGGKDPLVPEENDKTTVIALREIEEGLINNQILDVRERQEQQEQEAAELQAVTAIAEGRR
Chain of E. coli RNA polymerase σ70 holoenzyme (P00579 whole entry partner, the tested form may be a part): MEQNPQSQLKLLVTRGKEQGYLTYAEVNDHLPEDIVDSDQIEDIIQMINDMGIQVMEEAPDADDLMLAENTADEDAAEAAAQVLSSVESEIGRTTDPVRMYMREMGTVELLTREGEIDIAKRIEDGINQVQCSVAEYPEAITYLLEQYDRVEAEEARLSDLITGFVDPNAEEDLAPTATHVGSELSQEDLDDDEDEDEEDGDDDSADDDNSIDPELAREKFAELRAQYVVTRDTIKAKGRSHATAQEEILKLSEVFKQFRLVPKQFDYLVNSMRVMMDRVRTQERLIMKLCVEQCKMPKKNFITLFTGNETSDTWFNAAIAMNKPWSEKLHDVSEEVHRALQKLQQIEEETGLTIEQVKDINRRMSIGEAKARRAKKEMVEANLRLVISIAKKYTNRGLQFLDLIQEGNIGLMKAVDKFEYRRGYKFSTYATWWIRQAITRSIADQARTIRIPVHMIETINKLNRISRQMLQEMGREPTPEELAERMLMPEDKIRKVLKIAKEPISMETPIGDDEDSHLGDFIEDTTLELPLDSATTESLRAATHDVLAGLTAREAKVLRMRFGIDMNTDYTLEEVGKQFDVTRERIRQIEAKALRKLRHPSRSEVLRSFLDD

## CCCCCC1=CC(=O)C(C(=O)CCc2ccccc2)C(=O)O1 (stereo not drawn) [Compound 1, 4-hydroxy-6-pentyl-3-(3-phenylpropanoyl)-2-pyrone]
[1]
  IC50: 37 µM
[2]
  MIC: 7 mg/L (≈ 22.3 µM)
[3]
  MIC: 6 mg/L (≈ 19.1 µM)
[4]
  MIC: 3 mg/L (≈ 9.54 µM)
[5]
  MIC: 5 mg/L (≈ 15.9 µM)
[6]
  MIC: 8 mg/L (≈ 25.4 µM)
[7]
  MIC: 3 mg/L (≈ 9.54 µM)
[8]
  MIC: 9 mg/L (≈ 28.6 µM)
[9]
  MIC: 9 mg/L (≈ 28.6 µM)
